Laboratory results: US20020165141A1, “Methods for promoting dendritic cell proliferation or differentiation” (priority 2000, published 2002)
“Also recorded” adds a separate entry of the source.

B1: IL-6: murine recombinant Interleukin 6 (IL-6), 25 ng/ml (protein, UniProt P08505 25-211, looked up)
Interleukin-6: FPTSQVRRGDFTEDTTPNRPVYTTSQVGGLITHVLWEIVEMRKELCNGNSDCMNNDDALAENNLKLPEIQRNDGCYQTGYNQEICLLKISSGLLEYHSYLEYMKNNLKDNKKDKARVLQRDTETLIHIFNQEVKDLHKIVLPTPISNALLTDKLESQKEWLRTKTIQFILKSLEEFLKVTLRSTRQT
B2: GM-CSF: murine recombinant granulocyte macrophage-colony stimulating factor, 50 ng/ml (protein, UniProt P01587 18-141, looked up)
Granulocyte-macrophage …: APTRSPITVTRPWKHVEAIKEALNLLDDMPVTLNEEVEVVSNEFSFKKLTCVQTRLKIFEQGLRGNFTKLKGALNMTASYYQTYCPPTPETDCETQVTTYADFIDSLKTFLTDIPFECKKPGQK

Assays:
[1] = Tests of AII fragments for effectiveness (test not described); conditions: test not specified
[2] = system: dendritic cells; experiment: Effect of angiotensin peptides on dendritic cell proliferation (cells per well by phase contrast microscopy); format: cell-based, C57B1/6 mice; conditions: cytokine(s) added to the cultures alone
Text: Isolation of Dendritic Cells from Mice Treated with flt3 Ligand: Spleens were enriched in vivo with dendritic cells by stimulation with flt3 ligand (Marakovsky et al, 1996). C57B1/6 mice were subcutaneously injected with 4×10^6 flt3 ligand-secreting B16 melanoma cells prepared by transfection of murine flt3 ligand cDNA with the retroviral vector MFG. Spleen cells were harvested after the tumors reached 2-3 cm in diameter, at which time the spleens were 5-10 fold enlarged over those of untreated mice.
The spleens were harvested and the cells were dispersed through sterile screens. A single cell suspension of whole splenocytes was resuspended in a high-density BSA solution (1 ml/spleen) containing 10.6 g BSA, 18.6 ml PBS, 2.9 ml 1 N NaOH, and 6.5 ml water. After overlaying 2 ml of ice-cold RPMI, the splenocyte/BSA solution was centrifuged for 15 minutes at 9500 g. About 5×10^7 dendritic cells/spleen were recovered from the interface and resuspended in RPMI. […]
Culture of Dendritic Cells: Twenty four hours after isolation, these cells were counted and placed in culture in RPMI 1640 supplemented with 10% fetal calf serum, 2 mM 1 glutamine, 1 mM sodium pyruvate, 50 μM mercaptoethanol, 100 U/ml penicillin and 100 μg/ml streptomycin at a concentration of 1×10^3 cells/well of a 96 well plate. One third of the wells were counted at random to ensure even distribution of the cells to the wells. […]

Molecule | effectiveness [1] | number of cells per well / cellular proliferation, cytokine without angiotensin peptide [2]
His-Pro-Phe (HPF) [AII(6-8)] | not to be effective | –
Tyr-Ile-His-Pro-Phe (YIHPF) [AII(4-8)] | not to be effective; also recorded: ineffective | –
B1 | – | did not affect the number of cells per well
B2 | – | did not increase cellular proliferation
